In US20020028248A1, “RAPID-RELEASE MICRODISPERSIBLE ECADOTRIL PREPARATION” (priority 1996, published 2002):
Read-outs that look alike come from different tables or passages of the source.

Columns and labels:
[1] = Solubility of Ecadotril in water; format: physicochemical; settings: 37 °C
Text: Ecadotril (N-[(S)-α-(mercaptomethyl)hydrocinnamoyl]glycine, benzyl ester, acetate(ester); N-[(S)-α-(acetylthiomethyl)hydrocinnamoyl]glycine, benzyl ester) is an enkephalinase inhibitor used as a hypotensive drug, a cardiac insufficiency therapeutic drug, or the like. […] Therefore, when formulated into tablets, capsules, or the like by conventional methods, sufficient absorbability of Ecadotril in the digestive tract cannot be obtained because of low dispersibility of drug particles. Thus, a preparation of Ecadotril with improved bioavailability, in particular a tablet with high content, has been demanded. Generally, it is known that in order to obtain sufficient absorbability of such water-insoluble drugs, the solubility (dissolving rate) of the drugs is enhanced. For example, Japanese Laid-Open Patent Publication No. 7-76516 discloses a method for spray drying dispersions in which finely ground drug particles and a hydrophilic excipient are dispersed in water. However, according to this method, when powder to be obtained is formulated into tablets, there is a possibility that drug particles come into close contact with each other thereby decreasing the disintegration property and absorbability of the preparation. Furthermore, in the case where water-insoluble drugs such as Ecadotril with a low melting point and high plasticity are used, particles are likely to aggregate. […]

[2] = Dissolution test (in vitro test), paddle method; format: physicochemical; settings: 100 mg of the preparation, distilled water 900 ml, 37° C.
Procedure: (2) Dissolution test (in vitro test) Apparatus: Dissolution test machine in accordance with The 12th revised Japanese Pharmacopoeia using the paddle method a stirring speed 100 rpm. Test solution: Distilled water 900 ml, 37° C. Collection of solution: Eluates are collected 5, 10, 15, 30, 45, and 60 minutes after the commencement of dissolution, and the respective eluates are filtrated through […] 13; Kento Chemical Co., Ltd.) aqueous filter (0.22 μm). Then, about 1.5 ml each of the filtrates is collected. One milliliter of this filtrate or standard solution is mixed with 1 ml of internal standard, and 25 μl of the mixed solution is injected to HPLC.

SMILES: CC(=O)SC[C@@H](Cc1ccccc1)C(=O)NCC(=O)OCc1ccccc1 [Ecadotril, N-[(S)-α-(mercaptomethyl)hydrocinnamoyl]glycine, benzyl ester, acetate(ester)]
- solubility ([1]; read-out: solubility in water): ~33 µg/mL
- solubility ([1]; read-out: solubility of Ecadotril in water): 33 µg/mL
- maximum dissolution amount in the present test [2]: about 30%
